≈ marks a conversion by molar mass, not a printed value.
Columns and labels:
HEK293 = assay: cells; format: functional; conditions: Homo sapiens, ATCC CRL1573, HEK293; ASSAY_TEST Inhibition of Cell Viability; detection method Resazurin; Fluorescence (ex560/em590); MEDIA DMEM with 10% FBS; plate type 384well; TC; CORNING #3712; time 18 hr
Candida albicans = assay: microbe, parasite or virus in culture; conditions: ATCC 90028, ASSAY_TEST Inhibition of Fungal Growth, detection method Absorption (OD530), plate type 384well, NBS, CORNING #3640
Description: Antifungal activity against Candida albicans ATCC 90028 (CO-ADD:FG_001); MIC in YNB media using NBS plates, by OD630

Staphylococcus aureus = assay: microbe, parasite or virus in culture; conditions: ATCC 43300, 18 h, ASSAY_TEST Inhibition of Bacterial Growth, detection method Absorption (OD600), MEDIA CAMHB, plate type 384well, NBS, CORNING #3640
Description: Antibacterial activity against Staphylococcus aureus MRSA ATCC 43300 (CO-ADD:GP_020); MIC in CAMBH media, using NBS plates, by OD(600)

Klebsiella pneumoniae = assay: microbe, parasite or virus in culture; conditions: ATCC 700603, 18 h, ASSAY_TEST Inhibition of Bacterial Growth, detection method Absorption (OD600), MEDIA CAMHB, plate type 384well, NBS, CORNING #3640
Description: Antibacterial activity against Klebsiella pneumoniae MDR ATCC 70063 (CO-ADD:GN_003); MIC in CAMBH media using NBS plates, by OD(600)

Escherichia coli = assay: microbe, parasite or virus in culture; conditions: ATCC 25922, 18 h, ASSAY_TEST Inhibition of Bacterial Growth, detection method Absorption (OD600), MEDIA CAMHB, plate type 384well, NBS, CORNING #3640
Description: Antibacterial activity against Escherichia coli ATCC 25922 (CO-ADD:GN_001); MIC in CAMBH media using NBS plates, by OD(600)

Acinetobacter baumannii = assay: microbe, parasite or virus in culture; conditions: ATCC 19606, 18 h, ASSAY_TEST Inhibition of Bacterial Growth, detection method Absorption (OD600), MEDIA CAMHB, plate type 384well, NBS, CORNING #3640
Description: Antibacterial activity against Acinetobacter baumannii ATCC 19606 (CO-ADD:GN_034); MIC in CAMBH media using NBS plates, by OD600

Pseudomonas aeruginosa = assay: microbe, parasite or virus in culture; conditions: ATCC 27853, 18 h, ASSAY_TEST Inhibition of Bacterial Growth, detection method Absorption (OD600), MEDIA CAMHB, plate type 384well, NBS, CORNING #3640
Description: Antibacterial activity against Pseudomonas aeruginosa ATCC 27853 (CO-ADD:GN_042); MIC in CAMBH media using NBS plates, by OD(600)

Description for Cryptococcus neoformans: Antifungal activity against Cryptococcus neoformans H99 ATCC 208821 (CO-ADD:FG_002); MIC in YNB media using NBS plates, by Resazurin OD(600-570)

Clc1ccc(-c2nnc3cncc(OCCc4ccccc4)n23)cc1
CC50 (HEK293): 21.7 µg/mL (≈ 61.9 µM)
MIC (Candida albicans): 0.5 µg/mL (≈ 1.43 µM)
MIC (Staphylococcus aureus): > 32 µg/mL
MIC (Klebsiella pneumoniae): > 32 µg/mL
MIC (Escherichia coli): > 32 µg/mL
MIC (Acinetobacter baumannii): > 32 µg/mL
MIC (Cryptococcus neoformans): > 32 µg/mL
MIC (Pseudomonas aeruginosa): > 32 µg/mL

[O-][Cl+3]([O-])([O-])O.[O-][Cl+3]([O-])([O-])O.[Zn].c1ccc2c(-n3cc(CN4CCCNCCN(Cc5cn(-c6cccc7ccccc67)nn5)CCCNCC4)nn3)cccc2c1
CC50 (HEK293): 4.89 µg/mL
MIC (Candida albicans): > 32 µg/mL
MIC (Staphylococcus aureus): 4 µg/mL
MIC (Klebsiella pneumoniae): > 32 µg/mL
MIC (Escherichia coli): > 32 µg/mL
MIC (Acinetobacter baumannii): > 32 µg/mL
MIC (Cryptococcus neoformans): 4 µg/mL
MIC (Pseudomonas aeruginosa): > 32 µg/mL

CCN1C(=O)c2cccc3c(-c4c[n+](CCN5CCCNCCN(CC[n+]6cc(COc7ccc8c(c7)CC[C@@H]7[C@@H]8CC[C@]8(C)C(=O)CC[C@@H]78)[nH]n6)CCCNCC5)n[nH]4)ccc(c23)C1=O.[O-][Cl+3]([O-])([O-])O.[O-][Cl+3]([O-])([O-])O.[Zn+2]
CC50 (HEK293): > 32 µg/mL
MIC (Candida albicans): > 32 µg/mL
MIC (Staphylococcus aureus): 16 µg/mL
MIC (Klebsiella pneumoniae): > 32 µg/mL
MIC (Escherichia coli): > 32 µg/mL
MIC (Acinetobacter baumannii): > 32 µg/mL
MIC (Cryptococcus neoformans): 32 µg/mL
MIC (Pseudomonas aeruginosa): > 32 µg/mL
